# According to patent US6025387A, “Gastroprotective flavone/flavanone compounds with therapeutic effect on inflammatory bowel disease” (Dong a Pharmaceutical Co., Ltd., priority 1996, dated 2000):
# Columns and labels:
# [1] = system: chronic gastritis induced with acetic acid; assay: Model of chronic gastritis induced with acetic acid; assay type: in vivo, SD male rat; conditions: once a day for 21 days, rat
# Procedure: Experiment on the Model of Chronic Gastritis Induced with Acetic Acid
# From the next day of the surgical operation, the compound was orally administered once a day for 21 days. After 21 days, the stomach was extracted under ether anesthesis, dipped in 1% formalin solution and the area of gastric lesion was measured. […] An pathological tissue autopsy was carried out for the prepared specimen.
# [2] = system: TNBS-induced colitis; assay: TNBS-induced colitis model, intracolonic (rectal) administration; assay type: in vivo, male SD rats; conditions: once a day for 13 days, rat
# Procedure: (§1) Experiment on the Model of Inflammatory Bowl Diseases Induced with TNBS
# (§2) The modified method of Shibata et al. (Dig. Endosc. 1993, 5: 13) was used. 7 week-aged male SD rats were fasted for a day, and the rats were put under anesthesia and canula (diameter 3 mm) was inserted into the anus to the depth of 8 cm. 25 mg/mL of TNBS (Trinitrobenzene sulfonic acid) dissolved in 50% ethanol solution was injected to each rat and the rats were positioned at feature of tail up for 1 minute. The solution flowing out was removed and the rats were once washed with 1.5 mL of saline solution. After colitis was induced, the compound was administered orally or intracolonically once a day for 13 days. For control, mesalazine (5-amino salicylic acid) was used for oral administration and prednisolone was used for rectal administration. At 14th day of experiment, each group of the rats were put under ether anesthesis, the colon was extracted and the degree of adhesion and extension of the large intestine were measured and their lesion scores were recorded. After 1% formalin solution was injected to the cavity of the extracted colon to inflate, the both ends of it were bonded with each other and it was all-fixed in 1% formalin solution for 2 hours. The all-fixed colon was cut to lengthy direction and washed to remove surrounding fat tissues and connective fissaes. After cecum was removed, the weight of the colon and the rectum was measured, and the area of ulcer lesion, and microscopic lesion were measured to mark scores according to the criterion. And they were fixed in 10% neutral formalin solution, and the tissue examination of lesion site was performed by general method to mark scores according to the criterion.
# Macroscopic evaluation: We measured the number and the width of the ulcer and lesion area formed in the large intestine, by using modified Wallace's method (Can. J. Physiol. Pharmacol., 1988, 66: 422). We scored the lesion examined with the naked eye and compared the average value of each group. The standards of lesion scores as criterion of the damage of the colon by Wallace's method is as followings.
# (§3) (0: normal, non-damaged, 1: congestion without ulcer 2: congestion and thickening of intestinal wall without ulcer, 3: an ulcer lesion without thickening of intestinal wall, 4: more than two ulcerous/inflammatory lesion, 5: more than two ulcerous/inflammatory lesion or the length of ulcerous/inflammatory lesion is more than 1 cm, 6-10: when the length of lesion is over 2 cm, one point increases everytime 1 cm of the length of ulcerous/inflammatory increases, for example, when the ulcer length is 3 cm, the point is 7.)
# [3] = target: T1, 5-lipoxygenase (Rattus norvegicus, UniProt P12527); assay: 5-lipoxygenase activity (LTB4 in A23187-stimulated peritoneal neutrophils); assay type: cell-based
# T1 construct: endogenous in cells; host or cells: casein-elicited rat peritoneal neutrophils
# T1 sequence (P12527 1-673): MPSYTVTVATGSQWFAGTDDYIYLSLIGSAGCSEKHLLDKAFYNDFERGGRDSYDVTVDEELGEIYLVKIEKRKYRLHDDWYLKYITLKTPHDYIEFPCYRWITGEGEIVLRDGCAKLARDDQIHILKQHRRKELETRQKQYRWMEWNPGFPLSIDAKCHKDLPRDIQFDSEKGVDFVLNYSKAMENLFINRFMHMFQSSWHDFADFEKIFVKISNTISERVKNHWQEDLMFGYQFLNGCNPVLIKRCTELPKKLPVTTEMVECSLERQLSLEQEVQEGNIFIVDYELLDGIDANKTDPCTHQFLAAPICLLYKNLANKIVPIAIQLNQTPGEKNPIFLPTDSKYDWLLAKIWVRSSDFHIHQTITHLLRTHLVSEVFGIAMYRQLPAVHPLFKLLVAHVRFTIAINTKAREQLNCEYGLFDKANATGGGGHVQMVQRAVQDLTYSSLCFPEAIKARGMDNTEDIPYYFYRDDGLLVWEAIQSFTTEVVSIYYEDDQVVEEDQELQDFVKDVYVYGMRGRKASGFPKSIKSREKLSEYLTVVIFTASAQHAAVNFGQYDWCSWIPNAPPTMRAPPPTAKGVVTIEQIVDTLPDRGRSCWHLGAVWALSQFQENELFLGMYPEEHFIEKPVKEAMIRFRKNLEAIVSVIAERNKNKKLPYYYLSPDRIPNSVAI
# Procedure: Measurement of 5-lipooxygenase Activity
# Modified Safayhi et al.'s method (Safayhi, H., et al., Biochem. Pharmacol. 1985, 34: 2691) was used to this experiment. Peritoneal neutrophil was separated from the rat which was treated with casein solution. The compound was added to 10^7 cells (5×10^6 cells/mL, 2 mL) of neutrophil after 2 minutes Ca^2+ -ionophore, A23187 (1 μg/mL) was added and the mixture was incubared at 37° C. for 10 minutes. The reaction mixture was centrifuged and the supermatant was taken up. The amount of LTB4 in the supermatant was measured by radioimmunoassay.
# [4] = system: TNBS-induced colitis; assay: TNBS-induced colitis model, oral administration; assay type: in vivo, male SD rats; conditions: for lesion scores: once a day for 13 days, rat; for adhesion degree / dilation and extention degree: score 0-3, rat
# Procedure: as §1
# as §2, with “7” for “The modified method of Shibata et al. (Dig. Endosc. 1993, 5: 13) was used. 7”
# Clinical symptoms: Daily, we observed clinical symptoms and survival of the animals. And we measured the weight of the animals at the beginning day, third and eighth day of the experiment.
# (0: non-adhesion, 1: adhesion exists but easily taken off by gloved hand, 2: more severe adhesion than 1 exists but easily taken off by scissors, 3: very severe adhesion exists, so it is difficult to be taken off by scissors because of possibility of its perforation.)
# Degree of thickening and extension of the large intestine: We marked scores of the degree of thickness and extension of the large intestine according to the criterion, following the method of Kim et al., and compared with the average value of each group.
# (0: lesion site non-existing, 1: a few degree of lesion, 2: intermediate degree of lesion, 3: severe degree of lesion)
# We scored the lesion examined with the naked eye and compared the average value of each group. The standards of lesion scores as criterion of the damage of the colon by Wallace's method is as followings.
# as §3
# Microscopic evaluation: We trimmed the colon giving 3 cm interval from the rectum to the cecum, including the site of lesion examined with the naked eye, to make at least 4 specimens per an individual. […] When the lesion can not be examined with the naked eye, we trimmed the other specimen which has the lesion, with 3 cm interval.
# [5] = system: cyclooxygenase; assay: Cyclooxygenase activity in HUVEC (PGF1 α synthesis); assay type: cell-based
# Procedure: (§4) Measurment of Cyclooxygenase Actvity
# (§5) After addition of the compound to cultured HUVEC, the HUVEC was incubated at 37° C., for 30 minutes, then arachidonic acid (final concentration: 30 .rho.M) was added, and the HUVEC was additionally incubated at 37° C. for 15 minutes. The culture medium was taken, and the activity of cyclooxygenase for 6-Keto-PGF1 α or PGE2 was measured by radioimmunoassay (Mitchell, J. A., et al., Pro. Natl. Acad. Sci. USA 1994, 90: 11693-11697).
# **SC200 (ug/mL) : Concentration at increasing generation of […]
# [6] = system: gastric mucosal damage induced by ethanolic HCl; assay: Gastritis model induced with ethanolic-HCl; assay type: in vivo, SD male rat; conditions: po, 1 h, rat; for inhibition in vivo at 1 mg/kg: 1 mg/kg p.o.; for inhibition in vivo at 0.3 mg/kg: 0.3 mg/kg p.o.; for inhibition in vivo at 3 mg/kg: 3 mg/kg p.o.
# Procedure: Effect on the Gastritis Model Induced with Ethanolic-HCl.
# SD male rat(250-350 g) was fasted for 24 hours. The compound was orally administered in suspension of 5% HPMC, and after 1 hour 1.5 mL of 150 mM HCl-80% ethanol was orally administered. After 1 hour the rat was sacrifieced and the stomach was extracted and the ulcer index was measured. The ulcer index was shown by the area of hemorrhage lesion(Mizui, T, et al., Jpn. J. Pharmacol. 1983, 33: 939).
# [7] = system: cyclooxygenase; assay: Cyclooxygenase activity in HUVEC (PGE2 synthesis); assay type: cell-based
# Procedure: as §4, §5
# **SC200 (μg/mL) : Concentration at increasing generation of […]
# [8] = system: gastric mucus secretion; assay: Measurement of gastric mucus; assay type: in vivo, SD male rat; conditions: oral, rat
# Procedure: Measurement of Gastric Mucus
# The compound was orally administered into SD male rat (200~250 g). After 1 hour the stomach was extracted. The extracted stomach was immediately washed with 10 mL of cold 0.25M sucrose solution. The gastric mucosa was dyed with 0.1% alcian blue solution for 2 hours. After dyeing, the gastric mucosa was washed with 0.25M sucrose solution twice for 15 minutes and for 45 minutes. The dyed gastric mucosa was treated with 10 mL of 30% dioctyl sodium sulfosuccinate solution for 2 hours to extract dyed mucus completely and optical density of aqueous phase was measured spectrophotometrically at 655 nm. The amount of mucus in the gastric mucosa was shown as the amount of alcian blue after calibration (Kitagawa, H., et al., Drug Res. 1986, 36: 1240-1244).
smiles,measurement,setting,value
"COc1ccc(-c2cc(=O)c3c(OC)cc(OCC(=O)[O-])cc3o2)cc1OC.[Na+] [7-carboxymethyloxy-3',4',5-trimethoxy flavone sodium salt]",inhibiting% (gastric lesion),[1]; 0.3 mg/kg p.o.,4%
same,inhibiting% (gastric lesion),[1]; 3 mg/kg p.o.,83%
same,inhibiting% (gastric lesion),[1]; 10 mg/kg p.o.,80%
same,lesion scores,[2]; 0.3 mg/kg rectally,4.43
same,lesion scores,[2]; 3 mg/kg rectally,0.86
"CCCCCOc1cc2c(=O)cc(-c3ccc(OC)c(OC)c3)oc2cc1OCC(=O)O [7-carboxymethyloxy-3',4'-dimethoxy-6-n-pentyloxy flavone]",IC50,[3],2.8 µM
"COc1ccc(-c2cc(=O)c3c(OC)c(OC)c(OCC(=O)[O-])cc3o2)cc1OC.[Na+] [7-carboxymethyloxy-3',4',5,6-tetramethoxy flavone sodium salt]",inhibiting% (gastric lesion),[1]; 0.3 mg/kg p.o.,10%
same,inhibiting% (gastric lesion),[1]; 3 mg/kg p.o.,29%
same,inhibiting% (gastric lesion),[1]; 10 mg/kg p.o.,42%
same,lesion scores,[2]; 0.3 mg/kg rectally,2.56
same,lesion scores,[2]; 3 mg/kg rectally,2.60
same,lesion scores,[4]; 1 mg/kg p.o.,1.3
same,adhesion degree,[4]; 1 mg/kg p.o.,0.5
same,dilation and extention degree,[4]; 1 mg/kg p.o.,0.3
same,lesion scores,[4]; 10 mg/kg p.o.,0.8
same,adhesion degree,[4]; 10 mg/kg p.o.,0.6
same,dilation and extention degree,[4]; 10 mg/kg p.o.,0.4
"C[C@]12C=CC(=O)C=C1CC[C@@H]1[C@@H]2[C@@H](O)C[C@@]2(C)[C@H]1CC[C@]2(O)C(=O)CO [prednisolone, reference compound]",lesion scores,[2]; 1 mg/kg rectally,0.83
"CCCCOc1c(OCC(=O)O)cc2oc(-c3ccc(OC)c(OC)c3)cc(=O)c2c1O [7-carboxymethyloxy-5-hydroxy-6-n-butyloxy-3',4'-dimethoxy flavone]",IC50,[3],26.3 µM
same,"SC200, concentration increasing generation of PGF1α to 200%",[5],2.41 µg/mL
same,inhibition in vivo at 0.1 mg/kg,[6]; 0.1 mg/kg p.o.,43%
same,inhibition in vivo at 1 mg/kg,[6],61%
same,inhibition in vivo at 10 mg/kg,[6]; 10 mg/kg p.o.,63%
"COc1ccc(C2CC(=O)c3c(cc(O)c(OC)c3O)O2)cc1OC (stereo not drawn) [5,7-dihydroxy-3',4',6-trimethoxy flavanone]","SC200, concentration increasing generation of PGE2 to 200%",[7],3.9 µg/mL
same,"SC200, concentration increasing generation of PGF1α to 200%",[5],34.6 µg/mL
same,inhibition in vivo at 0.3 mg/kg,[6],5%
same,inhibition in vivo at 1 mg/kg,[6],49%
same,inhibition in vivo at 3 mg/kg,[6],56%
"COc1ccc(-c2cc(=O)c3c(OC)cc(OCC(=O)O)cc3o2)cc1OC [7-carboxymethyloxy-3',4',5-trimethoxy flavone]",IC50,[3],35.5 µM
same,"SC200, concentration increasing generation of PGF1α to 200%",[5],14.35 µg/mL
same,inhibition in vivo at 0.3 mg/kg,[6],58%
same,inhibition in vivo at 1 mg/kg,[6],68%
same,inhibition in vivo at 3 mg/kg,[6],85%
same,"gastric mucus secretion, % Control",[8]; 0.3 mg/kg,126.5 % Control
same,"gastric mucus secretion, % Control",[8]; 3 mg/kg,122.8 % Control
same,"gastric mucus secretion, % Control",[8]; 30 mg/kg,117.9 % Control
